pIC50: −log10 of the molar value. The source made the active and inactive calls. The rule behind the calls is not given here.
Experiments:
Hep 3B2 [1] = assay: Cytotoxicity against human Hep3B cells after 6 days by MTT assay; format: functional, cell-based; conditions: 144 h
HT-29 = assay: Cytotoxicity against human HT-29 cells after 6 days by MTT assay; format: functional, cell-based; conditions: HT-29, 144 h
Hep 3B2 [2] = assay: Cell cycle arrest in human Hep3B cells assessed as accumulation at G0/G1 phase at 30 uM after 48 hrs by propidium iodide staining based flow cytometry (reference value: […] +/- […]%); format: functional
Hep 3B2 [3] = assay: Growth inhibition of human Hep3B cells at 30 uM after 48 hrs by MTT assay; format: functional, cell-based
Hep 3B2 [4] = assay: Cell cycle arrest in human Hep3B cells assessed as accumulation at S phase at 30 uM after 48 hrs by propidium iodide staining based flow cytometry (reference value: 23.8 +/- 1.9%); format: functional
Hep 3B2 [5] = assay: Induction of autophagy in human Hep3B cells assessed as ratio of LC3-2 to beta-actin level at 30 uM after 48 hrs by Western blot analysis; format: functional
Hep 3B2 [6] = assay: Induction of apoptosis in human Hep3B cells assessed as ratio of cleaved caspase-3 to beta actin level at 30 uM after 48 hrs by Western blot analysis; format: functional
Hep 3B2 [7] = assay: Cell cycle arrest in human Hep3B cells assessed as accumulation at sub-G1 phase at 30 uM after 48 hrs by propidium iodide staining based flow cytometry (reference value: 3.7 +/- 0.4%); format: functional
Hep 3B2 [8] = assay: Cell cycle arrest in human Hep3B cells assessed as accumulation at G2/M phase at 30 uM after 48 hrs by propidium iodide staining based flow cytometry (reference value: 36.6 +/- 2.9%); format: functional

| Compound | pIC50 (Hep 3B2 [1]) | pIC50 (HT-29) | also measured |
| --- | --- | --- | --- |
| O=C1COc2ccccc2N1Cc1cn(CCc2c[nH]c3ccccc23)nn1 | 4.15 | 4.82 | – |
| O=C1COc2ccccc2N1Cc1cn(C/C=C/c2ccccc2)nn1 | 4.41 | < 4.00 | – |
| CC(C)(C)c1ccc(Cn2cc(CN3C(=O)COc4ccccc43)nn2)cc1 | 4.59 | 4.60 | – |
| COc1ccc(Cn2cc(CN3C(=O)COc4ccccc43)nn2)cc1 | < 4.00 | 4.73 | – |
| O=C1COc2cccnc2N1Cc1cn(Cc2ccccc2)nn1 | 5.06 | 4.89 | – |
| CCOC(=O)Cn1cc(CN2C(=O)COc3ccccc32)nn1 | 4.72 | 4.44 | – |
| O=C1COc2ccccc2N1Cc1cn(Cc2ccc(Cl)cc2)nn1 | < 4.00 | 4.66 | – |
| O=C1C(c2ccccc2)Oc2ccccc2N1Cc1cn(Cc2ccccc2)nn1 (stereo unspecified) | < 4.00 | < 4.00 | – |
| O=C1COc2ccc(Cl)cc2N1Cc1cn(Cc2ccccc2)nn1 | 4.26 | 4.12 | – |
| O=C1COc2ccccc2N1Cc1cn(Cc2ccc([N+](=O)[O-])cc2)nn1 | 4.53 | 4.81 | – |
| Cc1ccc(Cn2cc(CN3C(=O)COc4ccccc43)nn2)cc1 | < 4.00 | 4.54 | – |
| O=C1COc2ccccc2N1Cc1cn(Cc2ccccc2)nn1 | 4.07 | < 4.00 | – |
| Cc1cc2c(cc1Cl)N(Cc1cn(Cc3ccccc3)nn1)C(=O)CO2 | < 4.00 | 4.71 | – |
| CCCCCCn1cc(CN2C(=O)COc3ccccc32)nn1 | < 4.00 | 4.46 | – |
| CCC1Oc2ccccc2N(Cc2cn(Cc3ccccc3)nn2)C1=O (stereo unspecified) | < 4.00 | < 4.00 | – |
| CCCC1Oc2ccccc2N(Cc2cn(Cc3ccccc3)nn2)C1=O (stereo unspecified) | 4.21 | < 4.00 | – |
| O=C1COc2cc(F)ccc2N1Cc1cn(Cc2ccccc2)nn1 | 6.05 | < 4.00 | – |
| CCOC(=O)c1ccc2c(c1)N(Cc1cn(Cc3ccccc3)nn1)C(=O)CO2 | 4.77 | 4.38 | – |
| O=C1COc2ccccc2N1Cc1cn(Cc2ccc3ccccc3n2)nn1 | < 4.00 | < 4.00 | – |
| COC(=O)Cn1cc(CN2C(=O)COc3ccccc32)nn1 | < 4.00 | 4.29 | – |
| COc1ccc2c(c1)N(Cc1cn(Cc3ccccc3)nn1)C(=O)CO2 | < 4.00 | < 4.00 | – |
| COc1ccc2c(c1)OCC(=O)N2Cc1cn(Cc2ccccc2)nn1 | 5.04 | 5.03 | – |
| O=C1COc2ccccc2N1Cc1cn(Cc2cccc3ccccc23)nn1 | 4.82 | 4.77 | – |
| Cc1ccc2c(c1)N(Cc1cn(Cc3ccccc3)nn1)C(=O)CO2 | < 4.00 | < 4.00 | – |
| O=C1COc2ccccc2N1Cc1cn(CCc2ccccc2)nn1 | 4.18 | 4.31 | – |
| Cc1ccc2c(c1)OCC(=O)N2Cc1cn(Cc2ccccc2)nn1 | < 4.00 | 4.26 | – |
| O=C1COc2ccc(F)cc2N1Cc1cn(Cc2ccccc2)nn1 | < 4.00 | < 4.00 | – |
| COc1cc(/C=C/C(=O)CC(=O)/C=C/c2ccc(O)c(OC)c2)ccc1O [CURCUMIN] | – | – | Activity (Hep 3B2 [2]): 22.7%; growth inhibition (GI) (Hep 3B2 [3]): Active; Activity (Hep 3B2 [4]): 16.4%; Ratio (Hep 3B2 [5]): 6.6; Ratio (Hep 3B2 [6]): 1.2; Activity (Hep 3B2 [7]): 14.2%; Activity (Hep 3B2 [8]): 46.7% |
